Results taken from patent publication US20260070945A1, “MACROCYCLIC IMMUNOMODULATORS” (Bristol-Myers Squibb Company, priority 2022, published 2026).
Where a SMILES comes first, the peptide text is derived from it. Bridges are numbered along the chain shown (N, C = ends). [ ]: non-standard residue; d: D form. The star is where a group is joined. Phe(4-CONH2) = NC(=O)c1ccc(C[C@H](N)C(=O)O)cc1; Phe(4-COOH) = N[C@@H](Cc1ccc(C(=O)O)cc1)C(=O)O; Bip = N[C@@H](Cc1ccc(-c2ccccc2)cc1)C(=O)O; Phe(4-NH2) = Nc1ccc(C[C@H](N)C(=O)O)cc1; Phe(3-Me) = Cc1cccc(C[C@H](N)C(=O)O)c1; His(π-Me) = Cn1cncc1C[C@H](N)C(=O)O; Val(3-OH) = CC(C)(O)[C@H](N)C(=O)O; hPhe = N[C@@H](CCc1ccccc1)C(=O)O; 3Pal = N[C@@H](Cc1cccnc1)C(=O)O; 4Pal = N[C@@H](Cc1ccncc1)C(=O)O; 2Thi = N[C@@H](Cc1cccs1)C(=O)O; Aad = N[C@@H](CCCC(=O)O)C(=O)O; Cha = N[C@@H](CC1CCCCC1)C(=O)O; Cit = NC(=O)NCCC[C@H](N)C(=O)O; Carboxymethyl = O=C(O)C*; NMeA = CN[C@@H](C)C(=O)O; Aun = NCCCCCCCCCCC(=O)O; Dab = NCC[C@H](N)C(=O)O

Target: T1, PD-1/PD-L1 interaction (PE-labeled human PD-L1-Ig binding to Jurkat cell line over-expressing human PD-1) (Homo sapiens, UniProt Q15116)
T1 construct: expressed in transfected cells; host or cells: Jurkat
T1 sequence (Q15116 25-288): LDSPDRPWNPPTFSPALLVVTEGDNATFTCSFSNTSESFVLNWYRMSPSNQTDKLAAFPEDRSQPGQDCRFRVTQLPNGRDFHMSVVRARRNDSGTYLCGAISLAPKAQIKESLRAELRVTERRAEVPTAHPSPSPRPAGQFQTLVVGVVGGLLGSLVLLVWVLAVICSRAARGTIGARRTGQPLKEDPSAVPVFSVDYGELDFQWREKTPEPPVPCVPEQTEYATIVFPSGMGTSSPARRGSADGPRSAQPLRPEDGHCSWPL
Experiment: Jurkat-PD-1 Cell Binding High-Content Screening Assay (CBA)
Conditions: Jurkat-hPD-1 cells, PE-labeled PD-L1-Ig 20 nM final; read-out: Jurkat HPD1 PDL1 IC50
Outline: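 Jurkat cells overexpressing human PD-1 (8×10^3/well, DMEM + 10% FCS) preincubated with compound 2 h at 37 °C, then PE-labelled human PD-L1-Ig (20 nM final) for 1 h. Cells fixed in paraformaldehyde with Hoechst 33342; bound PD-L1 quantified by high-content imaging.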

| SMILES | IC50 |
| --- | --- |
| Cc1cccc(C[C@@H]2NC(=O)[C@H](CC(=O)O)NC(=O)[C@H](Cc3ccc(OCC(=O)O)cc3)NC(=O)[C@H](CCCNC(N)=O)NC(=O)CSC[C@@H](C(=O)N[C@@H](CCN)C(=O)NCCCCCCCCCCC(=O)O)NC(=O)[C@H](CO)NC(=O)[C@H](C(C)C)NC(=O)[C@H](CC3CCCCC3)NC(=O)[C@H](CCN)NC(=O)[C@@H](CC(C)C)NC(=O)[C@H](C)N(C)C(=O)[C@H](Cc3ccc(O)cc3)NC(=O)[C@H](Cc3ccc(-c4ccccc4)cc3)NC(=O)[C@H](Cc3ccc(OCC(=O)O)cc3)NC2=O)c1 [Example 1275] ({CH2CO}-[Cit]Y(Carboxymethyl)D[Phe(3-Me)]Y(Carboxymethyl)[Bip]Y[NMeA][dL][Dab][Cha]VSC[Dab][Aun]-OH; thioether N-14) | 0.223 µM |
| Cc1cccc(C[C@@H]2NC(=O)[C@H](CC(=O)O)NC(=O)[C@H](Cc3ccc(OCC(=O)O)cc3)NC(=O)[C@H](CCc3ccccc3)NC(=O)CSC[C@@H](C(=O)N[C@@H](CCN)C(=O)NCCCCCCCCCCC(=O)O)NC(=O)[C@H](CO)NC(=O)[C@H](C(C)C)NC(=O)[C@H](CC3CCCCC3)NC(=O)[C@H](CCN)NC(=O)[C@@H](CC(C)C)NC(=O)[C@H](C)N(C)C(=O)[C@H](Cc3ccc(O)cc3)NC(=O)[C@H](Cc3ccc(-c4ccccc4)cc3)NC(=O)[C@H](Cc3ccc(OCC(=O)O)cc3)NC2=O)c1 [Example 1276] ({CH2CO}-[hPhe]Y(Carboxymethyl)D[Phe(3-Me)]Y(Carboxymethyl)[Bip]Y[NMeA][dL][Dab][Cha]VSC[Dab][Aun]-OH; thioether N-14) | 0.142 µM |
| Cc1cccc(C[C@@H]2NC(=O)[C@H](CC(=O)O)NC(=O)[C@H](Cc3ccc(OCC(=O)O)cc3)NC(=O)[C@H](Cc3ccc(C(N)=O)cc3)NC(=O)CSC[C@@H](C(=O)N[C@@H](CCN)C(=O)NCCCCCCCCCCC(=O)O)NC(=O)[C@H](CO)NC(=O)[C@H](C(C)C)NC(=O)[C@H](CC3CCCCC3)NC(=O)[C@H](CCN)NC(=O)[C@@H](CC(C)C)NC(=O)[C@H](C)N(C)C(=O)[C@H](Cc3ccc(O)cc3)NC(=O)[C@H](Cc3ccc(-c4ccccc4)cc3)NC(=O)[C@H](Cc3ccc(OCC(=O)O)cc3)NC2=O)c1 [Example 1277] ({CH2CO}-[Phe(4-CONH2)]Y(Carboxymethyl)D[Phe(3-Me)]Y(Carboxymethyl)[Bip]Y[NMeA][dL][Dab][Cha]VSC[Dab][Aun]-OH; thioether N-14) | 0.0246 µM |
| Cc1cccc(C[C@@H]2NC(=O)[C@H](CC(=O)O)NC(=O)[C@H](Cc3ccc(OCC(=O)O)cc3)NC(=O)[C@H](Cc3ccc(N)cc3)NC(=O)CSC[C@@H](C(=O)N[C@@H](CCN)C(=O)NCCCCCCCCCCC(=O)O)NC(=O)[C@H](CO)NC(=O)[C@H](C(C)C)NC(=O)[C@H](CC3CCCCC3)NC(=O)[C@H](CCN)NC(=O)[C@@H](CC(C)C)NC(=O)[C@H](C)N(C)C(=O)[C@H](Cc3ccc(O)cc3)NC(=O)[C@H](Cc3ccc(-c4ccccc4)cc3)NC(=O)[C@H](Cc3ccc(OCC(=O)O)cc3)NC2=O)c1 [Example 1279] ({CH2CO}-[Phe(4-NH2)]Y(Carboxymethyl)D[Phe(3-Me)]Y(Carboxymethyl)[Bip]Y[NMeA][dL][Dab][Cha]VSC[Dab][Aun]-OH; thioether N-14) | 0.0393 µM |
| Cc1cccc(C[C@@H]2NC(=O)[C@H](CC(=O)O)NC(=O)[C@H](Cc3ccc(OCC(=O)O)cc3)NC(=O)[C@H](Cc3cncn3C)NC(=O)CSC[C@@H](C(=O)N[C@@H](CCN)C(=O)NCCCCCCCCCCC(=O)O)NC(=O)[C@H](CO)NC(=O)[C@H](C(C)C)NC(=O)[C@H](CC3CCCCC3)NC(=O)[C@H](CCN)NC(=O)[C@@H](CC(C)C)NC(=O)[C@H](C)N(C)C(=O)[C@H](Cc3ccc(O)cc3)NC(=O)[C@H](Cc3ccc(-c4ccccc4)cc3)NC(=O)[C@H](Cc3ccc(OCC(=O)O)cc3)NC2=O)c1 [Example 1281] ({CH2CO}-[His(π-Me)]Y(Carboxymethyl)D[Phe(3-Me)]Y(Carboxymethyl)[Bip]Y[NMeA][dL][Dab][Cha]VSC[Dab][Aun]-OH; thioether N-14) | 0.0221 µM |

Now from value to molecule:

| IC50 | SMILES |
| --- | --- |
| 0.0334 µM | Cc1cccc(C[C@@H]2NC(=O)[C@H](CC(=O)O)NC(=O)[C@H](Cc3ccc(OCC(=O)O)cc3)NC(=O)[C@H](Cc3cccnc3)NC(=O)CSC[C@@H](C(=O)N[C@@H](CCN)C(=O)NCCCCCCCCCCC(=O)O)NC(=O)[C@H](CO)NC(=O)[C@H](C(C)C)NC(=O)[C@H](CC3CCCCC3)NC(=O)[C@H](CCN)NC(=O)[C@@H](CC(C)C)NC(=O)[C@H](C)N(C)C(=O)[C@H](Cc3ccc(O)cc3)NC(=O)[C@H](Cc3ccc(-c4ccccc4)cc3)NC(=O)[C@H](Cc3ccc(OCC(=O)O)cc3)NC2=O)c1 [Example 1278] ({CH2CO}-[3Pal]Y(Carboxymethyl)D[Phe(3-Me)]Y(Carboxymethyl)[Bip]Y[NMeA][dL][Dab][Cha]VSC[Dab][Aun]-OH; thioether N-14) |
| 0.0293 µM | Cc1cccc(C[C@@H]2NC(=O)[C@H](CC(=O)O)NC(=O)[C@H](Cc3ccc(OCC(=O)O)cc3)NC(=O)[C@H](CCCC(=O)O)NC(=O)CSC[C@@H](C(=O)N[C@@H](CCN)C(=O)NCCCCCCCCCCC(=O)O)NC(=O)[C@H](CO)NC(=O)[C@H](C(C)C)NC(=O)[C@H](CC3CCCCC3)NC(=O)[C@H](CCN)NC(=O)[C@@H](CC(C)C)NC(=O)[C@H](C)N(C)C(=O)[C@H](Cc3ccc(O)cc3)NC(=O)[C@H](Cc3ccc(-c4ccccc4)cc3)NC(=O)[C@H](Cc3ccc(OCC(=O)O)cc3)NC2=O)c1 [Example 1280] ({CH2CO}-[Aad]Y(Carboxymethyl)D[Phe(3-Me)]Y(Carboxymethyl)[Bip]Y[NMeA][dL][Dab][Cha]VSC[Dab][Aun]-OH; thioether N-14) |
| 0.0072 µM | Cc1cccc(C[C@@H]2NC(=O)[C@H](CC(=O)O)NC(=O)[C@H](Cc3ccc(C(=O)O)cc3)NC(=O)[C@H](Cc3ccncc3)NC(=O)CSC[C@@H](C(=O)N[C@@H](CCN)C(=O)NCCCCCCCCCCC(=O)O)NC(=O)[C@H](CO)NC(=O)[C@H](C(C)(C)O)NC(=O)[C@H](CC3CCCCC3)NC(=O)[C@H](CCN)NC(=O)[C@@H](CC(C)C)NC(=O)[C@H](C)N(C)C(=O)[C@H](Cc3ccc(OCC(=O)O)cc3)NC(=O)[C@H](Cc3ccc(-c4ccccc4)cc3)NC(=O)[C@H](Cc3ccc(OCC(=O)O)cc3)NC2=O)c1 [Example 1282] ({CH2CO}-[4Pal][Phe(4-COOH)]D[Phe(3-Me)]Y(Carboxymethyl)[Bip]Y(Carboxymethyl)[NMeA][dL][Dab][Cha][Val(3-OH)]SC[Dab][Aun]-OH; thioether N-14) |
| 0.0159 µM | Cc1cccc(C[C@@H]2NC(=O)[C@H](CC(=O)O)NC(=O)[C@H](Cc3ccc(C(=O)O)cc3)NC(=O)[C@H](Cc3cccnc3)NC(=O)CSC[C@@H](C(=O)N[C@@H](CCN)C(=O)NCCCCCCCCCCC(=O)O)NC(=O)[C@H](CO)NC(=O)[C@H](C(C)(C)O)NC(=O)[C@H](CC3CCCCC3)NC(=O)[C@H](CCN)NC(=O)[C@@H](CC(C)C)NC(=O)[C@H](C)N(C)C(=O)[C@H](Cc3ccc(OCC(=O)O)cc3)NC(=O)[C@H](Cc3ccc(-c4ccccc4)cc3)NC(=O)[C@H](Cc3ccc(OCC(=O)O)cc3)NC2=O)c1 [Example 1283] ({CH2CO}-[3Pal][Phe(4-COOH)]D[Phe(3-Me)]Y(Carboxymethyl)[Bip]Y(Carboxymethyl)[NMeA][dL][Dab][Cha][Val(3-OH)]SC[Dab][Aun]-OH; thioether N-14) |
| 0.0169 µM | Cc1cccc(C[C@@H]2NC(=O)[C@H](CC(=O)O)NC(=O)[C@H](Cc3ccc(C(=O)O)cc3)NC(=O)[C@H](Cc3cccs3)NC(=O)CSC[C@@H](C(=O)N[C@@H](CCN)C(=O)NCCCCCCCCCCC(=O)O)NC(=O)[C@H](CO)NC(=O)[C@H](C(C)(C)O)NC(=O)[C@H](CC3CCCCC3)NC(=O)[C@H](CCN)NC(=O)[C@@H](CC(C)C)NC(=O)[C@H](C)N(C)C(=O)[C@H](Cc3ccc(OCC(=O)O)cc3)NC(=O)[C@H](Cc3ccc(-c4ccccc4)cc3)NC(=O)[C@H](Cc3ccc(OCC(=O)O)cc3)NC2=O)c1 [Example 1284] ({CH2CO}-[2Thi][Phe(4-COOH)]D[Phe(3-Me)]Y(Carboxymethyl)[Bip]Y(Carboxymethyl)[NMeA][dL][Dab][Cha][Val(3-OH)]SC[Dab][Aun]-OH; thioether N-14) |
| 0.0292 µM | Cc1cccc(C[C@@H]2NC(=O)[C@H](CC(=O)O)NC(=O)[C@H](Cc3ccc(OCC(=O)O)cc3)NC(=O)[C@H](Cc3cccs3)NC(=O)CSC[C@@H](C(=O)N[C@@H](CCN)C(=O)NCCCCCCCCCCC(=O)O)NC(=O)[C@H](CO)NC(=O)[C@H](C(C)(C)O)NC(=O)[C@H](CC3CCCCC3)NC(=O)[C@H](CCN)NC(=O)[C@@H](CC(C)C)NC(=O)[C@H](C)N(C)C(=O)[C@H](Cc3ccc(OCC(=O)O)cc3)NC(=O)[C@H](Cc3ccc(-c4ccccc4)cc3)NC(=O)[C@H](Cc3ccc(OCC(=O)O)cc3)NC2=O)c1 [Example 1285] ({CH2CO}-[2Thi]Y(Carboxymethyl)D[Phe(3-Me)]Y(Carboxymethyl)[Bip]Y(Carboxymethyl)[NMeA][dL][Dab][Cha][Val(3-OH)]SC[Dab][Aun]-OH; thioether N-14) |
| 0.0192 µM | COc1ccc(C[C@@H]2NC(=O)CSC[C@@H](C(=O)N[C@@H](CCN)C(=O)NCCCCCCCCCCC(=O)O)NC(=O)[C@H](CO)NC(=O)[C@H](C(C)(C)O)NC(=O)[C@H](CC3CCCCC3)NC(=O)[C@H](CCN)NC(=O)[C@@H](CC(C)C)NC(=O)[C@H](C)N(C)C(=O)[C@H](Cc3ccc(OCC(=O)O)cc3)NC(=O)[C@H](Cc3ccc(-c4ccccc4)cc3)NC(=O)[C@H](Cc3ccc(OCC(=O)O)cc3)NC(=O)[C@H](Cc3cccc(C)c3)NC(=O)[C@H](CC(=O)O)NC(=O)[C@H](Cc3ccc(OCC(=O)O)cc3)NC2=O)cc1 [Example 1286] ({CH2CO}-Y(Me)Y(Carboxymethyl)D[Phe(3-Me)]Y(Carboxymethyl)[Bip]Y(Carboxymethyl)[NMeA][dL][Dab][Cha][Val(3-OH)]SC[Dab][Aun]-OH; thioether N-14) |
